Experimental findings from US20070196294A1, “Photostable sunscreen compositions comprising dibenzoylmethane compound UV-A filters and s-triazine compounds” (L'OREAL, priority 2006, published 2007) are described below.

The series can be described thus: Photostability of formulations on PMMA sheets exposed in a Heraeus Suntest. It counts as physicochemical. To be noted: formulations 9 and 10 versus control formulation 8. As for the experimental part:
Method for Measuring the Photostability:
For each formulation, constituents given in % by weight, 3 test samples and 3 control samples were prepared. 2 mg/cm^2 of formulation are deposited on poly(methyl methacrylate) sheets using a spatula.
The test sheets are exposed for 38 min to a Heraeus Suntest equipped with a xenon lamp having a UV-A flux of 9.51×10^−3 W/cm^2 and a UV-B flux of 5.43×10^−4 W/cm^2. The control sheets are stored for the same time and at the same temperature (38-40° C.) in darkness.
At the end of this time, the screening agents are extracted by immersing each sheet in 50 g of methanol and by subjecting them to ultrasound for 15 min in order to provide for good extraction. The solutions obtained are analyzed by HPLC and UV spectrophotometry.
For each formulation tested, the residual 4-(tert-butyl)-4′-methoxydibenzoylmethane level after exposure is given in the ratio of its optical density (OD) in the exposed sample to its unexposed optical density (OD). The positions adopted are the absorption maxima corresponding to butyl-methoxy-dibenzoylmethane: λmax=358 nm.

On to `CCCCOC(=O)c1ccc(Nc2nc(Nc3ccc(C=C(C(=O)OCC(C)(C)C)C(=O)OCC(C)(C)C)cc3)nc(Nc3ccc(C=C(C(=O)OCC(C)(C)C)C(=O)OCC(C)(C)C)cc3)n2)cc1` [Example 1, 2,4-bis(dineopentyl 4′-aminobenzalmalonate)-6-(butyl 4″-aminobenzoate)-s-triazine], for which the “Photostability of the dibenzoylmethane in the presence of the compound (result in words)” value is “improvement in the photostability of the dibenzoylmethane”.
